Here are results for 21 compounds from patent US8519149B2, “Tricyclic compounds as mPGES-1 inhibitors” (Glenmark Pharmaceuticals S.A., priority 2010, dated 2013).

This test addresses T1, Recombinant human mPGES-1 (Homo sapiens, UniProt O14684).
T1 sequence (O14684 1-152): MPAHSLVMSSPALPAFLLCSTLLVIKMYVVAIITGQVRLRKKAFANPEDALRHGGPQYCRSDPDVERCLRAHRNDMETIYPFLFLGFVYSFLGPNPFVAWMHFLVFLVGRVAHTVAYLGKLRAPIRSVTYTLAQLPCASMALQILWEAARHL
The test can be described thus: In-vitro mPGES-1 enzyme inhibition assay (PGE2 formation from PGH2, HTRF detection). The format is biochemical. The settings on record: for inhibition at 1 µM: 1 μM test compound, read-out: Percentage inhibition at 1 μM; for inhibition at 1 µM / inhibition at 10 µM: recombinant human mPGES-1 microsomal fraction; for inhibition at 10 µM: 10 μM test compound, read-out: Percentage inhibition at 10 μM; for IC50: class symbols, selected examples. The text has this:
In-Vitro Protocol for Screening of mPGES-1 Inhibitors: mPGES-1 (microsomal prostaglandin E synthase-1) is a microsomal enzyme that converts endoperoxide substrate PGH2 (prostaglandin H2) to product PGE2 (prostaglandin E2) by isomerization in the presence of reduced glutathione (GSH). mPGES-1 inhibitors were screened by assessing their ability to inhibit formation of PGE2 from PGH2 in presence of mPGES-1 using anti-PGE2 antibody based detection method. […] Assay was set up using crude microsomal fractions at protein concentration of 40-60 μg/mL. […] Final concentration of DMSO in reaction was 0.5% (v/v). Negative controls comprised of all assay reagents except the enzyme. Positive controls comprised of enzyme reaction in the absence of any inhibitor. […] Reaction was stopped by addition of Stannous chloride (11 mg/ml) and PGE2 levels were measured ([…] et al. […] Inhibition of mPGES-1 enzyme activity was measured using percent of reaction occurring in the positive control. Concentration response curves were plotted using percent inhibition of maximum enzyme reaction. IC50 value was calculated from concentration response curve by nonlinear regression analysis using GraphPad PRISM software.
Background: Time-resolved FRET reads energy transfer from a long-lived donor to a nearby acceptor.

Each structure is given as a SMILES string. A value given as a limit tells only on which side of the number the result lay.

Turning to `CC1(C)Cc2c(c(C(=O)Nc3cc(C4CC4)ccc3F)cc3nc(Nc4c(F)cccc4Cl)[nH]c23)O1` [Example-134, 2-((2-Chloro-6-fluorophenyl)amino)-N-(5-cyclopropyl-2-fluorophenyl)-7,7-dimethyl-7,8-dihydro-1H-benzofuro[4,5-d]imidazole-5-carboxamide], the inhibition (commonly the relative decrease from the control value, in per cent) at 1 µM is 99.9%; the inhibition at 10 µM came to 99.4%; the IC50 (commonly the concentration at which inhibition is half-maximal) was below 50 nM.
For the compound `Cc1cc2c(o1)c(C(=O)Nc1ccccc1F)cc1nc(Nc3c(Cl)cccc3Cl)[nH]c12` [Example-67, 2-[(2,6-Dichlorophenyl)amino]-N-(2-fluorophenyl)-7-methyl-1H-furo[3,2-e]benzimidazole-5-carboxamide], the inhibition at 1 µM was 92.8% and the inhibition at 10 µM stood at 96.2%.
In the case of `Cc1cccc(Cl)c1Nc1nc2cc(C(=O)NCc3ccc(F)cc3C(F)(F)F)c3c(c2[nH]1)CC(C)(C)O3` [Example-130, 2-((2-Chloro-6-methylphenyl)amino)-N-(4-fluoro-2-(trifluoromethyl)benzyl)-7,7-dimethyl-7,8-dihydro-1H-benzofuro[4,5-d]imidazole-5-carboxamide], the inhibition at 1 µM amounted to 74.6% and the inhibition at 10 µM was 96.8%.
With `Cc1cc2c(o1)c(C(=O)NC(C)(C)CC(C)(C)C)cc1nc(Nc3c(Cl)cncc3Cl)[nH]c12` [Example-34, 2-[(3,5-Dichloropyridin-4-yl)amino]-7-methyl-N-(2,4,4-trimethylpentan-2-yl)-1H-furo[3,2-e]benzimidazole-5-carboxamide], the inhibition at 1 µM is 95.5%, the inhibition at 10 µM was 98.7% and the IC50 was below 50 nM.
On the same counts, the results for `CC1(C)Cc2c(c(C(=O)Nc3ccccc3Br)cc3nc(Nc4c(Cl)cccc4Cl)[nH]c23)O1` [Example-72, N-(2-Bromophenyl)-2-[(2,6-dichlorophenyl)amino]-7,7-dimethyl-7,8-dihydro-1H-furo[3,2-e]benzimidazole-5-carboxamide] are 93.2%, 93.7% and below 50 nM.
For the compound `Cc1cc2c(o1)c(C(=O)NC1CCCCC1)cc1nc(Nc3c(Cl)cccc3Cl)[nH]c12` [Example-13, N-Cyclohexyl-2-[(2,6-dichlorophenyl)amino]-7-methyl-1H-furo[3,2-e]benzimidazole-5-carboxamide], the inhibition at 1 µM was 94.2% and the inhibition at 10 µM came out at 97.5%.
Regarding `Cn1c(Nc2c(Cl)cncc2Cl)nc2cc(C(=O)Nc3ccc(F)c(C(F)(F)F)c3)c3c(c21)CC(C)(C)O3` [Example-213, 2-((3,5-Dichloropyridin-4-yl)amino)-N-(4-fluoro-3-(trifluoromethyl)phenyl)-1,7,7-trimethyl-7,8-dihydro-1H-benzofuro[4,5-d]imidazole-5-carboxamide], the inhibition at 1 µM was found to be 96.3% and the inhibition at 10 µM worked out at 97.3%.
Take `Cc1nc2c(o1)c(C(=O)Nc1ccc(C(F)(F)F)cc1)cc1nc(Nc3c(Cl)cccc3Cl)[nH]c12` [Example-178, 7-[(2,6-Dichlorophenyl)amino]-2-methyl-N-[4-(trifluoromethyl)phenyl]-8H-imidazo[4,5-e][1,3]benzoxazole-4-carboxamide]: the inhibition at 1 µM was determined as 91.4%, the inhibition at 10 µM was found to be 98.2% and the IC50 was below 50 nM.
In the case of `CC1(C)Cc2c(c(C(=O)Nc3nc(C(C)(C)C)cs3)cc3nc(Nc4c(F)cccc4Cl)[nH]c23)O1` [Example-53, N-(4-tert-Butyl-1,3-thiazol-2-yl)-2-[(2-chloro-6-fluorophenyl)amino]-7,7-dimethyl-7,8-dihydro-1H-furo[3,2-e]benzimidazole-5-carboxamide], the inhibition at 1 µM was found to be 47.2% and the inhibition at 10 µM was determined as 85.4%.
With `CC1(C)Cc2c(c(C(=O)Nc3ccc(C4CC4)cc3)cc3nc(Nc4c(F)cccc4Cl)[nH]c23)O1` [Example-140, 2-((2-Chloro-6-fluorophenyl)amino)-N-(4-cyclopropylphenyl)-7,7-dimethyl-7,8-dihydro-1H-benzofuro[4,5-d]imidazole-5-carboxamide], the inhibition at 1 µM amounted to 97.1%, the inhibition at 10 µM was 98.9% and the concentration for half-maximal inhibition (IC50) was below 50 nM.
On the same counts, the results for `CC1(C)Cc2c(c(C(=O)Nc3cc(C(F)(F)F)ccc3F)cc3nc(Nc4c(F)cccc4Cl)[nH]c23)O1` [Example-111, 2-[(2-Chloro-6-fluorophenyl)amino]-N-[2-fluoro-5-(trifluoromethyl)phenyl]-7,7-dimethyl-7,8-dihydro-1H-furo[3,2-e]benzimidazole-5-carboxamide] are 96.4%, 99.8% and below 50 nM.
In the case of `CC1(C)Cc2c(c(C(=O)NN3CCCC3)cc3nc(Nc4c(Cl)cccc4Cl)[nH]c23)O1` [Example-58, 2-[(2,6-Dichlorophenyl)amino]-7,7-dimethyl-N-(pyrrolidin-1-yl)-7,8-dihydro-1H-furo[3,2-e]benzimidazole-5-carboxamide], the inhibition at 1 µM was determined as 63.3% and the inhibition at 10 µM amounted to 95.4%.
In the case of `CC1(C)Cc2c(c(C(=O)Nc3cccc(C(C)(F)F)c3)cc3nc(Nc4c(F)cccc4Cl)[nH]c23)O1` [Example-119, 2-[(2-Chloro-6-fluorophenyl)amino]-N-[3-(1,1-difluoroethyl)phenyl]-7,7-dimethyl-7,8-dihydro-1H-furo[3,2-e]benzimidazole-5-carboxamide], the inhibition at 1 µM was 98.1%, the inhibition at 10 µM amounted to 100% and the IC50 was below 50 nM.
On the same counts, the results for `CC1(C)Cc2c(c(C(=O)Nc3ccc(Cl)cc3)cc3nc(Nc4c(Cl)cncc4Cl)[nH]c23)O1` [Example-15, N-(4-Chlorophenyl)-2-[(3,5-dichloropyridin-4-yl)amino]-7,7-dimethyl-7,8-dihydro-1H-furo[3,2-e]benzimidazole-5-carboxamide] are 97.5%, 95.5% and below 50 nM.
Turning to `Cc1ccnc(Cl)c1Nc1nc2cc(C(=O)Nc3cccc(C(F)(F)F)c3)c3c(c2[nH]1)CC(C)(C)O3` [Example-137, 2-((2-Chloro-4-methylpyridin-3-yl)amino)-7,7-dimethyl-N-(3-(trifluoromethyl)phenyl)-7,8-dihydro-1H-benzofuro[4,5-d]imidazole-5-carboxamide], the inhibition at 1 µM came out at 95.3%, the inhibition at 10 µM was 100% and the IC50 was below 50 nM.
For `CC(O)CNC(=O)c1cc2nc(Nc3c(Cl)cccc3Cl)[nH]c2c2c1OC(C)(C)C2` (centres unmarked) [Example-43, 2-[(2,6-Dichlorophenyl)amino]-N-(2-hydroxypropyl)-7,7-dimethyl-7,8-dihydro-1H-furo[3,2-e]benzimidazole-5-carboxamide], the inhibition at 1 µM was 43.8%, the inhibition at 10 µM turned out to be 72.3% and the IC50 was below 50 nM.
For `Cc1ccc(Cl)c(Nc2nc3cc(C(=O)Nc4ccccc4C(F)(F)F)c4c(c3[nH]2)CC(C)(C)O4)c1` [Example-97, 2-[(2-Chloro-5-methylphenyl)amino]-7,7-dimethyl-N-[2-(trifluoromethyl)phenyl]-7,8-dihydro-1H-furo[3,2-e]benzimidazole-5-carboxamide], in that order: 96.7%, 95.3% and below 50 nM.
For `CC1(C)Cc2c(c(C(=O)NCc3ccccc3C(F)(F)F)cc3nc(Nc4c(Cl)cccc4Cl)[nH]c23)O1` [Example-82, 2-[(2,6-Dichlorophenyl)amino]-7,7-dimethyl-N-[2-(trifluoromethyl)benzyl]-7,8-dihydro-1H-furo[3,2-e]benzimidazole-5-carboxamide], in that order: 94.1%, 97.6% and below 50 nM.
For `COCCCNC(=O)c1cc2nc(Nc3c(Cl)cccc3Cl)[nH]c2c2c1OC(C)(C)C2` [Example-69, 2-[(2,6-Dichlorophenyl)amino]-N-(3-methoxypropyl)-7,7-dimethyl-7,8-dihydro-1H-furo[3,2-e]benzimidazole-5-carboxamide], the inhibition at 1 µM came to 86.2%, the inhibition at 10 µM turned out to be 98% and the IC50 is below 50 nM.
For `CC1(C)Cc2c(c(C(=O)Nc3ccc(C#N)cc3)cc3nc(Nc4c(Cl)cccc4Cl)[nH]c23)O1` [Example-59, N-(4-Cyanophenyl)-2-[(2,6-dichlorophenyl)amino]-7,7-dimethyl-7,8-dihydro-1H-furo[3,2-e]benzimidazole-5-carboxamide], in that order: 96.8%, 98.1% and below 50 nM.
Turning to `CC1(C)Cc2c(c(C(=O)Nc3ccc(F)c(C(F)(F)F)c3)cc3nc(Nc4c(Cl)cncc4Cl)[nH]c23)O1` [Example-196, 2-((3,5-Dichloropyridin-4-yl)amino)-N-(4-fluoro-3-(trifluoromethyl)phenyl)-7,7-dimethyl-7,8-dihydro-1H-benzofuro[4,5-d]imidazole-5-carboxamide], the inhibition at 1 µM came to 100% and the inhibition at 10 µM is 98.8%.
